Experimental data taken from article PMC7767381, “Exploring the Anti-Cancer Mechanism of Novel 3,4′-Substituted Diaryl Guanidinium Derivatives” (Pharmaceuticals, 2020).
Values joined by “and” are separate entries in the source; they are usually repeats but may differ in a detail not shown here. Identical values can stand only once.

Tested on: HL-60 cells
Assay: Annexin V-FITC/PI flow cytometry apoptosis assay in HL-60
Assay type: cell-based, human
Details: 48 h; for induction of apoptosis: annexin V-FITC/PI; for viability at 5 µM: HL-60, 5 μM
Method: We have previously reported that compound 1 induces 68.9 ± 0.1% apoptosis in HL-60 cells at a 10 μM concentration after 48 h. Accordingly, in order to evaluate the apoptotic effect of the most relevant derivatives (2, 3, and 4), HL-60 cells were treated with these compounds (at 5 µM, 5 µM, and 4 µM concentration, respectively) for 48 h, stained with annexin V-FITC/PI and analysed using flow cytometry (Figure 5).
Apoptosis was analysed using annexin V fluorescein isothiocyanate (FITC) and propidium iodide (PI). HL-60 cells were seeded at a density of 2 × 10^5 cells/mL in 12 well plates. Cells were then treated with either vehicle (0.5% ethanol), 2 (5 µM), 3 (5 µM), or 4 (4 µM) for 48 h. Following treatment, HL60 cells were collected and washed with annexin V binding buffer (5 mM HEPES, 70 mM NaCl, 1.25 mM CaCl2 pH 7.4) and stained with annexin V-FITC (iQ Corporation, Groningen, The Netherlands) for 20 min. Following washing with annexin V binding buffer, cells were resuspended in PI (0.5 µg/mL) in binding buffer and analysed on BD FACS Canto II flow cytometer (BD Sciences) using FloJo software (Ashland, OR, USA).
Figure 5 Annexin V-FITC vs. PI flow cytometry analysis of HL-60 cancer cells treated with compounds 3 (5 μM), 2 (5 μM) and 4 (4 μM) for 48 h. These figures are representative of three independent experiments. The viable cells, early apoptotic, necrotic and late apoptotic cells are represented by the lower left, lower right, upper left and upper right quadrants, respectively. TEXT PRINTED IN THE PICTURE: 3: 2.45; 32.6; 27.1; 37.8 | 2: 0.56; 11.3; 78.1; 9.96 | 4: 1.09; 40.2; 12.4; 46.2 DOUBTS OF THE COPYIST ABOUT THIS PICTURE: All quadrant numbers are in very small print with no measure or unit; they are listed in the order upper left, upper right, lower left, lower right / 3, upper right quadrant: 32.6, partly covered by data points, 3/8 and 6/8 uncertain / 3, lower right quadrant: 37.8, partly covered by data points, 37.8 or 37.6 / 3, lower left quadrant: 27.1, small print / 2, lower left quadrant: 78.1 or 76.1 / 2, lower right quadrant: 9.96 or 9.95 or 9.98 / 4, upper right quadrant: 40.2, partly covered by data points / 4, lower right quadrant: 46.2 or 48.2, partly covered by data points / The Control and Vehicle plots also print quadrant numbers (Control: 0.16, 1.41, 97.7, 0.77; Vehicle: 0.088, 1.65, 97.3, 0.94); they are not listed because they are not test substances […]
Apoptosis was analysed using annexin V fluorescein isothiocyanate (FITC) and propidium iodide (PI). HL-60 cells were seeded at a density of 2x10^5 cells/mL in 12 well plates. Cells were then treated with either vehicle (0.5% ethanol), 2 (5 µM), 3 (5 µM) or 4 (4 µM) for 48 hours.
Following treatment, HL60 cells were collected and washed with annexin V binding buffer (5 mM HEPES, 70 mM NaCl, 1.25 mM CaCl2 pH 7.4) and stained with annexin V -FITC (iQ Corporation, Groningen, The Netherlands) for 20 minutes. Following washing with annexin V binding buffer, cells were resuspended in PI (0.5 µg/mL) in binding buffer and analysed on BD FACS Canto II flow cytometer (BD Sciences) using FloJo software (Ashlan d, Oregon, United […]
Figure S13. Compounds 3 and 4 promote strong apoptosis when inhibiting HL-60 cell viability.
For flow cytometry, HL60 cells were seeded at a density of 2x10^5 cells/mL in 12 well plates.
Cells were then treated with either vehicle (0.5% ethanol), 2 (5 µM), 3 (5 µM) or 4 (4 µM) for 48 hours. After 48 hours, cells were collected and stained with annexin V – FITC and propidium iodide. Samples were analysed by flow cytometry using the BD FACs Canto II cytometer.
Columns and bars represent the mean ± S.D. of 3 independent experiments. Statistical analysis was performed using one-way ANOVA with Dunnett’s multiple comparisons test comparing vehicle to drug treated samples. *p<0.05 and ***p<0.001.
(1 picture or pasted object on this page, not shown here)

[1] = Homo sapiens, representative plot, read-out: viable cells (lower left quadrant)

Row | SMILES | induction of apoptosis (HL-60, 4 µM) | viability at 4 µM (Homo sapiens, HL-60, 4 μM, representative plot, read-out: viable cells (lower left quadrant)) [%] | induction of apoptosis (HL-60, 5 µM) | viability at 5 µM [1] [%]
1 | Cl.N=C(N)Nc1ccc(Oc2cccc(Nc3ccc(Cl)c(C(F)(F)F)c3)c2)cn1 [Compound 4, 1-(5-(3-((4-Chloro-3-(trifluoromethyl)phenyl)amino)phenoxy)pyridin-2-yl)guanidine hydrochloride] | 92.7 ± 5.5% and 92% | 12.4 |  | 
2 | Cl.Cl.N=C(N)Nc1ccc(Oc2cccc(NC(=N)Nc3ccc(Cl)c(C(F)(F)F)c3)c2)cn1 [Compound 2, 1-(4-Chloro-3-(trifluoromethyl)phenyl)-3-(3-((6-guanidinopyridin-3-yl)oxy)phenyl) guanidine dihydrochloride] |  |  | 30.7 ± 11.6% and ~30% | 78.1
3 | Cl.N=C(N)Nc1ccc(Oc2cccc(Nc3ccc(Cl)c(C(F)(F)F)c3)c2)cc1 [Compound 3, 1-(4-(3-((4-Chloro-3-(trifluoromethyl)phenyl)amino)phenoxy)phenyl)guanidine hydrochloride] |  |  | 82.5 ± 11.3% and 82% | 27.1
